Values of other authors as cited in article PMC10698917, “Antioxidant and antidiabetic flavonoids from the leaves of Dypsis pembana (H.E.Moore) Beentje & J.Dransf., Arecaceae: in vitro and molecular docking studies” (BMC Complementary Medicine and Therapies, 2023).

System: HepG-2 cell line
Set-up: method as in PMID 37391756
Conditions: cited from earlier work

Row | SMILES | Cytotoxic activity
1 | O=c1cc(-c2ccc(O)cc2)oc2c([C@@H]3O[C@H](CO)[C@@H](O)[C@H](O)[C@H]3O)c(O)c([C@@H]3O[C@H](CO)[C@@H](O)[C@H](O)[C@H]3O)c(O)c12 [Compound 7, vicenin-II] | promising cytotoxic activities
2 | O=c1cc(-c2ccc(O)cc2)oc2cc(O)c([C@@H]3O[C@H](CO)[C@@H](O)[C@H](O)[C@H]3O)c(O)c12 [Compound 13, isovitexin] | promising cytotoxic activities
